In patent publication US20250195521A1 (Revolution Medicines, Inc., priority 2020, published 2025):
Where two headings read alike, the source gives them in different places.

Experiments:
[1] = system: Capan-1 cells (K-Ras G12V); assay: CellTiter-Glo cell viability, Capan-1; type: cell-based, human; settings: Homo sapiens, CAPAN-1, 120 h, read-out: Capan-1 Cell Viability IC50
In short: (§1)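 Viability read by luminescence on day 5 after direct compound addition to cells, following ~30 min room-temperature equilibration. Values expressed as percent of mean DMSO signal, curves fitted with a four-parameter logistic model.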

KRAS G12D = KRAS G12D (Homo sapiens (Human), UniProt P01116+P62937, G12D); assay: Ras-Raf disruption/FRET/MOA assay (BRAF RBD, Cyclophilin A); type: biochemical; settings: read-out: KRAS G12D FRET IC50
In short: (§2)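 His6-K-Ras-GMPPNP (12.5 nM), GST-BRAF RBD (50 nM) and tagless Cyclophilin A (25 μM) were combined in 25 mM HEPES pH 7.3 with 100 mM NaCl, 5 mM MgCl2, 0.1% BSA and 0.002% Tween20, with compound as a 10-point 3-fold series from 30 μM final, then incubated 3 h at 25° C.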

KRAS Q61H = KRAS Q61H (Homo sapiens (Human), UniProt P01116+P62937, Q61H); assay: as above; type: biochemical
In short: as §2

NRAS WT = NRAS WT (Homo sapiens (Human), UniProt P01111+P62937); assay: as above; type: biochemical
In short: (§3)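 Measured: compound-facilitated Cyclophilin A:Ras complex blocking RAF RBD binding. Conditions: 12.5 nM Ras-GMPPNP, 50 nM BRAF RBD, 25 μM CypA, 3 h plus 1.5 h detection. Output: IC50 from TR-FRET ratio.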

NRAS G12C = NRAS G12C (Homo sapiens (Human), UniProt P01111+P62937, G12C); assay: as above; type: biochemical; settings: read-out: NRAS G12C FRET data IC50
In short: as §3

KRAS G12S = KRAS G12S (Homo sapiens (Human), UniProt P01116+P62937, G12S); assay: as above; type: biochemical; settings: read-out: KRAS G12S FRET IC50
In short: as §2

KRAS G13D = KRAS G13D (Homo sapiens (Human), UniProt P01116+P62937, G13D); assay: as above; type: biochemical; settings: read-out: KRAS G13D FRET data IC50
In short: as §2

KRAS WT = KRAS WT (Homo sapiens (Human), UniProt P01116+P62937); assay: as above; type: biochemical; settings: read-out: KRAS WT FRET data IC50
In short: as §2

NRAS Q61R = NRAS Q61R (Homo sapiens (Human), UniProt P01111+P62937, Q61R); assay: as above; type: biochemical
In short: as §3

KRAS G12V = KRAS G12V (Homo sapiens (Human), UniProt P01116+P62937, G12V); assay: as above; type: biochemical; settings: read-out: KRAS G12V FRET IC50
In short: as §2

KRAS G13C = KRAS G13C (Homo sapiens (Human), UniProt P01116+P62937, G13C); assay: as above; type: biochemical; settings: read-out: KRAS G13C FRET IC50
In short: as §2

KRAS G12C = KRAS G12C (Homo sapiens (Human), UniProt P01116+P62937, G12C); assay: as above; type: biochemical; settings: read-out: KRAS G12C FRET IC50
In short: as §2

[2] = system: NCI-H358 cells (K-Ras G12C); assay: CellTiter-Glo cell viability, NCI-H358; type: cell-based, human; settings: Homo sapiens, NCI-H358, 120 h, K-Ras G12C, 5-day treatment; read-out: H358 Cell Viability IC50
In short: as §1

[3] = system: K-Ras G12C (NCI-H358 cells); assay: Potency assay: pERK in NCI-H358 cells; type: cell-based, human; settings: Homo sapiens, NCI-H358, 4 h, read-out: pERK EC50 (H358 KRAS G12C)
In short: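 Cells plated the day before were exposed for 4 h at 37° C, 5% CO2 to a 10-point, 3-fold DMSO dilution series (10 mM top stock), in duplicate. Phospho-ERK was read by AlphaLISA SureFire Ultra or by In-Cell Western with DRAQ5 DNA stain, and IC50 came from a 4-parameter sigmoidal fit.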

Sequence of KRAS G12D (P01116 other isoform, or with tags, fused parts or gaps G12D): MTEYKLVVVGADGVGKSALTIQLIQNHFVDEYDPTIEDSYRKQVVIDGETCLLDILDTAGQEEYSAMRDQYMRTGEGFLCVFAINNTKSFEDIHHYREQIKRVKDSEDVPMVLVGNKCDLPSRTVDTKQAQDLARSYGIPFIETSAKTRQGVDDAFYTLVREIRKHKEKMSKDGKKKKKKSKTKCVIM
Sequence of KRAS G12D (P62937 whole entry): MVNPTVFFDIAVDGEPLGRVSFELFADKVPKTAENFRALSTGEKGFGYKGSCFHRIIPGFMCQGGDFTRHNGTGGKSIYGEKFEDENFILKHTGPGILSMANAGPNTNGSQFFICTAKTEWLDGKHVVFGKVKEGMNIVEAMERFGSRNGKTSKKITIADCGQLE
Sequence of NRAS G12C (P01111 whole entry G12C): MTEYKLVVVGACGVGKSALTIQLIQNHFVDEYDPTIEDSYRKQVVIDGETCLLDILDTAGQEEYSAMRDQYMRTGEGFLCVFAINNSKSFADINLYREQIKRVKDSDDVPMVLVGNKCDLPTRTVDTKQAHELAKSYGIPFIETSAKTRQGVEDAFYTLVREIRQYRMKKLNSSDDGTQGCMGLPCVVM
Sequence of NRAS G12C (P62937 whole entry): as the sequence (P62937 whole entry) above
Sequence of NRAS WT (P01111 whole entry): as the sequence (P01111 whole entry G12C) above, with C12G counted along it
Sequence of NRAS WT (P62937 whole entry): as the sequence (P62937 whole entry) above
Sequence of KRAS G12S (P01116 other isoform, or with tags, fused parts or gaps G12S): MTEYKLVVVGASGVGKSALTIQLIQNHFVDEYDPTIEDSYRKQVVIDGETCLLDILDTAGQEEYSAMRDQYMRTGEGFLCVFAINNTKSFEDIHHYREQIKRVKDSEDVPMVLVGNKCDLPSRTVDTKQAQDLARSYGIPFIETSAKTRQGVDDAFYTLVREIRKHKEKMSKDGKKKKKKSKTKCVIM
Sequence of KRAS G12S (P62937 whole entry): as the sequence (P62937 whole entry) above
Sequence of KRAS G12C (P01116-2 other isoform, or with tags, fused parts or gaps G12C): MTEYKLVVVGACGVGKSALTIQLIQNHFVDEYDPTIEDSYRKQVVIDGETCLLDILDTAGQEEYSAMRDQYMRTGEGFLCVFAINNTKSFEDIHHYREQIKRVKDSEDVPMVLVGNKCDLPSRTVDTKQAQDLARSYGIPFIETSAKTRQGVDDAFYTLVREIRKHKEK
Sequence of KRAS G12C (P62937 whole entry): as the sequence (P62937 whole entry) above
Sequence of KRAS G13D (P01116 other isoform, or with tags, fused parts or gaps G13D): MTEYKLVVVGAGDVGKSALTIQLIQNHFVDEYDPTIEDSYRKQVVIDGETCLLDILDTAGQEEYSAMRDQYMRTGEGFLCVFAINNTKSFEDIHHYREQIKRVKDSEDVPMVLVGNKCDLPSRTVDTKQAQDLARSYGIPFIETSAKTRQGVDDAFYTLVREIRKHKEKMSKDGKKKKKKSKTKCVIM
Sequence of KRAS G13D (P62937 whole entry): as the sequence (P62937 whole entry) above
Sequence of NRAS Q61R (P01111 whole entry Q61R): as the sequence (P01111 whole entry G12C) above, with C12G, Q61R counted along it
Sequence of NRAS Q61R (P62937 whole entry): as the sequence (P62937 whole entry) above
Sequence of KRAS WT (P01116 other isoform, or with tags, fused parts or gaps): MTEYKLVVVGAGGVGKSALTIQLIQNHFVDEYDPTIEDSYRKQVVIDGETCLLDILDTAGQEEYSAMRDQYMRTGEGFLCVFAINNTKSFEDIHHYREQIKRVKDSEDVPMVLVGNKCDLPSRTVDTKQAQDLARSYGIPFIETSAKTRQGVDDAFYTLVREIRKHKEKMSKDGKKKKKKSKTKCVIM
Sequence of KRAS WT (P62937 whole entry): as the sequence (P62937 whole entry) above
Sequence of KRAS Q61H (P01116 other isoform, or with tags, fused parts or gaps Q61H): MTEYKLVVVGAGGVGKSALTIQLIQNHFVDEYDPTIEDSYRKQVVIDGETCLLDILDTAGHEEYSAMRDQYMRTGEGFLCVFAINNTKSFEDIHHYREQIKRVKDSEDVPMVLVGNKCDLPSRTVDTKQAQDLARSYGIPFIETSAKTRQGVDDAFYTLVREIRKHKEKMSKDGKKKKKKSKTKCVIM
Sequence of KRAS Q61H (P62937 whole entry): as the sequence (P62937 whole entry) above
Sequence of KRAS G13C (P01116 other isoform, or with tags, fused parts or gaps G13C): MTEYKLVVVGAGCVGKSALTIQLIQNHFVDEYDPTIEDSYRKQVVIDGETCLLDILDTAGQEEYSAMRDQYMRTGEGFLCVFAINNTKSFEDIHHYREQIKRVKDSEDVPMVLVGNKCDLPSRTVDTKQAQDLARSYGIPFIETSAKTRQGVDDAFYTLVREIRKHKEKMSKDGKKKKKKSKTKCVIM
Sequence of KRAS G13C (P62937 whole entry): as the sequence (P62937 whole entry) above
Sequence of KRAS G12V (P01116 other isoform, or with tags, fused parts or gaps G12V): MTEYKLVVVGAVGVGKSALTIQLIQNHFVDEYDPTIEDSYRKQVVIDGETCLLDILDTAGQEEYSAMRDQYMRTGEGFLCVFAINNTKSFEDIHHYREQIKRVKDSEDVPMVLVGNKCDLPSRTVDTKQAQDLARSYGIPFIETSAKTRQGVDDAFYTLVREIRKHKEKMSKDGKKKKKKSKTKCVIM
Sequence of KRAS G12V (P62937 whole entry): as the sequence (P62937 whole entry) above

Row | IC50 (KRAS G12D) [nM] | IC50 (KRAS Q61H) [nM] | IC50 (NRAS WT) [nM] | IC50 (NRAS G12C) [nM] | IC50 (KRAS G12S) [nM] | IC50 (KRAS G13D) [nM] | IC50 (KRAS WT) [nM] | IC50 (NRAS Q61R) [nM] | IC50 (KRAS G12V) [nM] | IC50 (KRAS G13C) [nM] | IC50 (KRAS G12C) [nM] | IC50 [2] [nM] | Compound | IC50 ([1]; K-Ras G12V, 5-day treatment) [nM] | IC50 [1] [nM] | EC50 [3] [nM]
1 | 100 to 1000 | 10 to 100 | 100 to 1000 | 10 to 100 | 100 to 1000 | 100 to 1000 | 100 to 1000 | 100 to 1000 | 100 to 1000 | 100 to 1000 | 10 to 100 | 10 to 100 | CCn1c(-c2cccnc2[C@H](C)OC)c2c3cc(ccc31)-c1csc(n1)C[C@H](NC(=O)[C@H](C(C)C)N(C)C(=O)N1CC[C@H](O)C1)C(=O)N1CCC[C@H](N1)C(=O)OCC(C)(C)C2 [Compound A401] | 10 to 100 |  | 
2 | 100 to 1000 | 10 to 100 | 100 to 1000 | 100 to 1000 | 100 to 1000 | 100 to 1000 | 100 to 1000 | 100 to 1000 | 100 to 1000 | 100 to 1000 | 100 to 1000 | 10 to 100 | CCn1c(-c2cccnc2[C@H](C)OC)c2c3cc(ccc31)-c1csc(n1)C[C@H](NC(=O)[C@H](C(C)C)N(C)C(=O)N1CC3(CC(N(C)C(C)C)C3)C1)C(=O)N1CCC[C@H](N1)C(=O)OCC(C)(C)C2 [Compound A485] | 10 to 100 |  | 
3 | 1000 to 10000 | 100 to 1000 | 100 to 1000 | 100 to 1000 | 100 to 1000 | 100 to 1000 | 100 to 1000 | 100 to 1000 | 100 to 1000 | 100 to 1000 | 100 to 1000 | 10 to 100 | CCn1c(-c2cccnc2[C@H](C)OC)c2c3cc(ccc31)-c1csc(n1)C[C@H](NC(=O)[C@H](C(C)C)N(C)C(=O)N1CC3(CC(NCCOC)C3)C1)C(=O)N1CCC[C@H](N1)C(=O)OCC(C)(C)C2 [Compound A512] | 10 to 100 |  | 

The next lines start with the molecule.

Row | Compound | IC50 (KRAS G12D) [nM] | IC50 (KRAS Q61H) [nM] | IC50 (NRAS WT) [nM] | IC50 (NRAS G12C) [nM] | IC50 (KRAS G12S) [nM] | IC50 (KRAS G13D) [nM] | IC50 (KRAS WT) [nM] | IC50 (NRAS Q61R) [nM] | IC50 (KRAS G12V) [nM] | IC50 (KRAS G13C) [nM] | IC50 (KRAS G12C) [nM] | IC50 [2] [nM] | IC50 ([1]; K-Ras G12V, 5-day treatment) [nM] | IC50 [1] [nM] | EC50 [3] [nM]
4 | CCn1c(-c2cccnc2[C@H](C)OC)c2c3cc(ccc31)-c1csc(n1)C[C@H](NC(=O)[C@H](C(C)C)N(C)C(=O)N(C)C1COC1)C(=O)N1CCC[C@H](N1)C(=O)OCC(C)(C)C2 [Compound A334] | 100 to 1000 | 10 to 100 | 100 to 1000 | 10 to 100 | 100 to 1000 | 100 to 1000 | 100 to 1000 | 100 to 1000 | 100 to 1000 | 100 to 1000 | 10 to 100 | 10 to 100 | 10 to 100 |  | 
5 | CCn1c(-c2cccnc2[C@H](C)OC)c2c3cc(ccc31)-c1cc(O)cc(c1)C[C@H](NC(=O)[C@H](C(C)C)N(C)C(=O)[C@H]1CCC(=O)O1)C(=O)N1CCC[C@H](N1)C(=O)OCC(C)(C)C2 [Compound A405] | 100 to 1000 | 10 to 100 | 10 to 100 | 10 to 100 | 10 to 100 | 10 to 100 | 10 to 100 | 100 to 1000 | 10 to 100 | 10 to 100 | 10 to 100 | 1000 to 10000 | 1000 to 10000 |  | 
6 | CCn1c(-c2cccnc2[C@H](C)OC)c2c3cc(ccc31)-c1csc(n1)C[C@H](NC(=O)[C@H](C(C)C)N(C)C(=O)N1CC(S(=O)(=O)N(C)C)C1)C(=O)N1CCC[C@H](N1)C(=O)OCC(C)(C)C2 [Compound A551] | 100 to 1000 | 10 to 100 | 100 to 1000 | 10 to 100 | 100 to 1000 | 100 to 1000 | 100 to 1000 | 100 to 1000 | 100 to 1000 | 100 to 1000 | 10 to 100 |  |  | 10 to 100 | < 5000
7 | CCn1c(-c2cccnc2[C@H](C)OC)c2c3cc(ccc31)-c1csc(n1)C[C@H](NC(=O)[C@H](C(C)C)N(C)C(=O)N(C)CCc1ccncc1)C(=O)N1CCC[C@H](N1)C(=O)OCC(C)(C)C2 [Compound A557] | 100 to 1000 | 10 to 100 | 100 to 1000 | 10 to 100 | 100 to 1000 | 100 to 1000 | 100 to 1000 | 100 to 1000 | 100 to 1000 | 100 to 1000 | 10 to 100 | 10 to 100 | 100 to 1000 |  | 
